Results: patent publication US20150104520A1, “Nanoparticle Formulations in Biomarker Detection” (priority 2013, published 2015)

System: patients with epithelial ovarian cancer
Assay: Phase 2 randomized two-arm trial, IG-001 plus carboplatin vs paclitaxel plus carboplatin, 1st line
Source text: Phase II ovarian trial design: randomized, two-arm trial, primary advanced epithelial ovarian cancer consisting of 100 patients (50/each arm). […] The primary objective of the study was to determine the Composite Response by GCIG CA-125 Response and Response Evaluation Criteria in Solid Tumors (RECIST): based on non-inferiority study. […] The treatment regimen included 6 cycles of treatment with injection every three weeks and tumor screening after cycles 2, 4 and 6.

Compound | response rate (each with carboplatin) [%] | Response n (%) (composite response by GCIG CA-125 and RECIST, IG-001 260 mg/m^2 or paclitaxel 175 mg/m^2, each + carboplatin 5 AUC, every 3 weeks, 6 cycles) | SAE Rate (%) (patients with SAE) | UAE Rate (%) (patients with UAE)
CC(=O)O[C@H]1C(=O)[C@@]2(C)[C@H]([C@H](OC(=O)c3ccccc3)[C@]3(O)C[C@H](OC(=O)[C@H](O)[C@@H](NC(=O)c4ccccc4)c4ccccc4)C(C)=C1C3(C)C)[C@]1(OC(C)=O)CO[C@@H]1C[C@@H]2O [paclitaxel] | 77.8 | – | – | –
Paclitaxel + Carboplatin | – | 37 (77.08) n (%) | 15 (31.25) n (%) | 0 (0.00) n (%)
